Measured values: patent US8389739B1, “Modulators of retinoid-related orphan receptor gamma” (Orphagen Pharmaceuticals, priority 2006, dated 2013)
Like-named read-outs stand apart in the source and are kept apart here.

What was measured:
Assay in all cases: Crossreactive receptor transcriptional assay (Gal4 hybrid)
Format in all cases: cell-based
[1] = target: T1, hERα (Estrogen receptor-alpha) (Homo sapiens, UniProt P03372)
T1 construct: 249-595; expressed in transfected cells; host or cells: CHO cells, transient transfection
T1 sequence (P03372 249-595): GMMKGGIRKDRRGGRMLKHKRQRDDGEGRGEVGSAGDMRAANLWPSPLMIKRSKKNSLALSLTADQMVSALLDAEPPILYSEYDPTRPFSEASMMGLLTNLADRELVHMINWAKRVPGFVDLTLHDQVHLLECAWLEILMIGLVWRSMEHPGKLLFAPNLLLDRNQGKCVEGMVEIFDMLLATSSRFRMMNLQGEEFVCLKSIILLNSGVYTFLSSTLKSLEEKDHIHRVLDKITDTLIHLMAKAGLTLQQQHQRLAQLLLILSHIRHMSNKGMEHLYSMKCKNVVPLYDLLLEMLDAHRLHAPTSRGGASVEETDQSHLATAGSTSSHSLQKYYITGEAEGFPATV

[2] = target: T2, hFXR (farnesoid X receptor) (Homo sapiens, UniProt Q96RI1)
T2 construct: 192-473; expressed in transfected cells; host or cells: CHO cells, transient transfection
T2 sequence (Q96RI1 192-472 isoform Q96RI1-2): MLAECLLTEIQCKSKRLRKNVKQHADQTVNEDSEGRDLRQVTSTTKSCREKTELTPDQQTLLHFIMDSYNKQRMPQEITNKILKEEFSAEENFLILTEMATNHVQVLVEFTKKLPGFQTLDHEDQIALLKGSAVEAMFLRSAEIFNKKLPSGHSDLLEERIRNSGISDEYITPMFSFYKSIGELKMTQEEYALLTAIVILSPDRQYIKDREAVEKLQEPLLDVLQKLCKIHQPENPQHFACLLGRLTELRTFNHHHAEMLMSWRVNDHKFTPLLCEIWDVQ

hPPARα = target: T3, hPPARα (Homo sapiens, UniProt Q07869)
T3 construct: 166-468; expressed in transfected cells; host or cells: CHO cells, transient transfection
T3 sequence (Q07869 166-468): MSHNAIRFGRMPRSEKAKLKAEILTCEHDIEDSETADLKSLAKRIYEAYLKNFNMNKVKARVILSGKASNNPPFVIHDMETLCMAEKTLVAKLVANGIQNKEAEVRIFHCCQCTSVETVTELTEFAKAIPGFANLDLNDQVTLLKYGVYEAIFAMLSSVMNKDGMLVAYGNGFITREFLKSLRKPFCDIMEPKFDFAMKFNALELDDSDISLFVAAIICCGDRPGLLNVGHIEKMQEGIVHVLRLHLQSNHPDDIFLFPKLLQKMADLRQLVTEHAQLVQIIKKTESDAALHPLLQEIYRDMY

hPPARγ = target: T4, hPPARγ (Homo sapiens, UniProt P37231)
T4 construct: 175-477; expressed in transfected cells; host or cells: CHO cells, transient transfection
T4 sequence (P37231 175-477 isoform P37231-2): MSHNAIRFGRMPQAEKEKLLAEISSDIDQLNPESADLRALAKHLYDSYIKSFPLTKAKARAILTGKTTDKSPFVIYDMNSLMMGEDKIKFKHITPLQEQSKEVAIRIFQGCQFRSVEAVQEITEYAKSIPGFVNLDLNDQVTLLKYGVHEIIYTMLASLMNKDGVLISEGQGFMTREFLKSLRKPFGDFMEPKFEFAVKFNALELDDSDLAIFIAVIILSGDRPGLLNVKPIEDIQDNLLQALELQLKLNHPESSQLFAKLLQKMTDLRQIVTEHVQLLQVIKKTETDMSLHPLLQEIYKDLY

[3] = target: T5, mGR (glucocorticoid receptor) (Mus musculus, UniProt P06537)
T5 construct: 524-793; expressed in transfected cells; host or cells: CHO cells, transient transfection
T5 sequence (P06537 524-793 isoform P06537-2): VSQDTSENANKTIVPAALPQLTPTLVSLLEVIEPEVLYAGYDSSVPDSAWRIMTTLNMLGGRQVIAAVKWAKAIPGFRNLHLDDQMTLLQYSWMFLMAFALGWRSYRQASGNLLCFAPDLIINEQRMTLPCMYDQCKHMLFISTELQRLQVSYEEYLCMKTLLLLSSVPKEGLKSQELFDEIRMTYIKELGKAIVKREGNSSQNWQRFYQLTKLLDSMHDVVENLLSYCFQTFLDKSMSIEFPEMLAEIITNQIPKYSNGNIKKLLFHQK

[4] = Table 6, read-out: Potency (EC50) at hERα
[5] = Table 6, read-out: Potency (EC50) at hFXR
[6] = Table 6, RORγ ligands: no significant activity at 20 μM, read-out: Potency (EC50) at hPPARα
[7] = Table 6, read-out: Potency (EC50) at hPPARγ
[8] = Table 6, read-out: Potency (EC50) at mGR

Measured: EC50

COC(C)CCC(C)C1CCC2C3CC(O)C4CC(O)CCC4(C)C3CCC12C (stereo not shown) [OR-12872, 17-(4-Methoxy-1-methyl-pentyl)-10,13-dimethyl-hexadecahydro-cyclopenta[a]phenanthrene-3,6-diol]
> 10 µM: [1]; [4] | [2]; [5] | hPPARα; [6] | hPPARγ; [7] | [3]; [8]

CCN(c1ccc(C(O)(C(F)(F)F)C(F)(F)F)cc1)S(=O)(=O)c1ccc([N+](=O)[O-])cc1 [OR-1050, N-Ethyl-4-nitro-N-[4-(2,2,2-trifluoro-1-hydroxy-1-trifluoromethyl-ethyl)-phenyl]-benzenesulfonamide]
> 10 µM: [1]; [4] | [2]; [5] | hPPARα; [6] | hPPARγ; [7] | [3]; [8]

CCn1c(CNc2ccc(Cl)cc2)nnc1SCC(=O)Nc1cccc2ccccc12 [OR-133008, 2-{5-[(4-Chloro-phenylamino)-methyl]-4-ethyl-4H-[1,2,4]triazol-3-ylsulfanyl}-N-naphthalen-1-yl-acetamide]
> 10 µM: [1]; [4] | [2]; [5] | hPPARα; [6] | hPPARγ; [7] | [3]; [8]

CC(=O)O[C@H]1CC[C@@]2(C)C(CC[C@]3(C)C2C(=O)C=C2C4[C@@H](C)[C@H](C)CC[C@]4(C(=O)O)CC[C@]23C)C1(C)C (stereo in doubt) [OR-13571, 10-Acetoxy-1,2,6a,6b,9,9,12a-heptamethyl-13-oxo-1,3,4,5,6,6a,6b,7,8,8a,9,10,11,12,12a,12b,13,14b-octadecahydro-2H-picene-4a-carboxylic acid]
> 10 µM: [1]; [4] | [2]; [5] | hPPARα; [6] | hPPARγ; [7] | [3]; [8]

C[C@@H]1CC[C@@]2(OC1)O[C@H]1C[C@H]3[C@@H]4CC[C@H]5C[C@@H](O)CC[C@]5(C)[C@H]4C[C@@H](O)[C@]3(C)[C@H]1[C@@H]2C [OR-885, 5α,20α, 22α, 25D-SPIROSTAN-3β, 12β-DIOL]
> 10 µM: [1] | [2] | hPPARα | hPPARγ | [3]

O=S(=O)(c1ccccc1)N(CC(F)(F)F)c1ccc(C(O)(C(F)(F)F)C(F)(F)F)cc1 [Compound T0901317, N-(2,2,2-Trifluoro-ethyl)-N-[4-(2,2,2-trifluoro-1-hydroxy-1-trifluoromethyl-ethyl)-phenyl]-benzenesulfonamide, reference compound]
> 10 µM: [1]; [4] | hPPARα; [6] | hPPARγ; [7] | [3]; [8]

COc1c(C=NNc2nc(N3CCCCC3)nc(N3CCCCC3)n2)cccc1[N+](=O)[O-] [OR-2161, N-(4,6-Di-piperidin-1-yl-[1,3,5]triazin-2-yl)-N′-(2-methoxy-3-nitro-benzylidene)-hydrazine]
> 10 µM: [1]; [4] | [2]; [5] | hPPARα; [6] | hPPARγ; [7] | [3]; [8]
